Test results as given in patent US20250000069A1, “ANTHELMINTIC LABORATORY ANIMAL MODEL FOR HEARTWORM” (priority 2019, published 2025).
Values joined by “and” are separate entries in the source; they are usually repeats but may differ in a detail not shown here. Equal entries are not always repeated.

Legend:
[1] = system: D. immitis (UGA susceptible strain); test: Dog (oral) heartworm model, compiled dose correlation data; assay type: in vivo
[2] = system: D. immitis (Michigan strain); test: Efficacy of compounds in the D. immitis immunosuppressed rat model (third study, subcutaneous dosing); assay type: in vivo
[3] = system: D. immitis (Michigan susceptible strain); test: Rat (SQ) heartworm model, compiled dose correlation data; assay type: in vivo
[4] = system: D. immitis ZoeMI-01 (ZM1) strain; test: Oral moxidectin in immunosuppressed rats infected with ZoeMI-01 strain; assay type: in vivo, rat; conditions: for Mean worm counts: geometric mean
D. immitis JYD-34 strain = test: Oral moxidectin in immunosuppressed rats infected with JYD-34 strain; assay type: in vivo, rat; conditions: for Mean worm counts: geometric mean
[5] = rat, in vivo
[6] = oral 3 μg/kg day 28, necropsy day 120
[7] = oral 3 μg/kg days 28, 56, 84, necropsy day 120
[8] = oral 12 μg/kg day 28, necropsy day 120
[9] = oral 24 μg/kg day 28, necropsy day 120
[10] = n = 4, oral 3 μg/kg day 28, necropsy day 120
[11] = n = 4, oral 3 μg/kg days 28, 56, 84, necropsy day 120
[12] = n = 4, oral 24 μg/kg day 28, necropsy day 120
[13] = rat, SC 0.001 mg/kg day 30 post-inoculation, necropsy day 112-114
[14] = rat, SC 0.003 mg/kg day 30 post-inoculation, necropsy day 112-114
[15] = SQ 1 μg/kg, dosed month 1 post-inoculation
[16] = rat, SC 1.00 mg/kg day 30 post-inoculation, necropsy day 112-114
[17] = rat, SC 5.00 mg/kg day 30 post-inoculation, necropsy day 112-114

For `CC[C@H](C)[C@H]1O[C@]2(CC[C@@H]1C)C[C@@H]1C[C@@H](C/C=C(\C)[C@@H](O[C@H]3C[C@H](OC)[C@@H](O[C@H]4C[C@H](OC)[C@@H](O)[C@H](C)O4)[C@H](C)O3)[C@@H](C)/C=C/C=C3\CO[C@@H]4[C@H](O)C(C)=C[C@@H](C(=O)O1)[C@]34O)O2` [IVM, ivermectin], the “% Efficacy” value ([1]; in vivo, po) was 53% and 83-97% and 98% and 100% and 64%, the efficacy ([2]; rat, in vivo) was 96.5% and the “# of Ag+” value ([2]; rat, in vivo, sc, 0.001 mg/kg) was 2. The “# rats with infection (n = 6)” value ([2]; rat, in vivo, sc, 0.001 mg/kg) was 5, the “% Efficacy” value ([2]; rat, in vivo, sc, 0.001 mg/kg) was 89.3% and the “Mean worm count (range)” value ([2]; rat, in vivo, sc, 0.001 mg/kg) was 0.8. For the same compound, the “# of Ag+” value ([2]; rat, in vivo, sc, 0.003 mg/kg) was 2, the “# rats with infection (n = 6)” value ([2]; rat, in vivo, sc, 0.003 mg/kg) was 1 and the “% Efficacy” value ([2]; rat, in vivo, sc, 0.003 mg/kg) was 96.5%. The “Mean worm count (range)” value ([2]; rat, in vivo, sc, 0.003 mg/kg) was 0.3 and the “% Efficacy” value ([3]; in vivo) was 89% and 97-100% and 100%.
In the case of `CO/N=C1\C[C@]2(C[C@@H]3C[C@@H](C/C=C(\C)C[C@@H](C)/C=C/C=C4\CO[C@@H]5[C@H](O)C(C)=C[C@@H](C(=O)O3)[C@]45O)O2)O[C@H](/C(C)=C/C(C)C)[C@H]1C` [MOX, moxidectin], the “% Efficacy” value ([1]; oral 0.5 μg/kg, dosed month 2 post-inoculation) is reported as 100%, the “% Efficacy” value ([1]; oral 0.625 μg/kg, dosed month 2 post-inoculation) is reported as 100% and the “% Efficacy” value ([1]; oral 1.25 μg/kg, dosed months 1, 2 post-inoculation) is reported as 100%. For the same compound, the Mean worm counts [4, 6] was 1.1, the Mean worm counts [4, 7] was 0 and the Mean worm counts [4, 8] was 0. The Mean worm counts [4, 9] was 0, the “Number of rats infected” value [4, 10] was 3 and the “Number of rats infected” value [4, 11] was 0. The “Number of rats infected” value ([4]; n = 4, oral 12 μg/kg day 28, necropsy day 120) was 0, the “Number of rats infected” value [4, 12] was 0 and the “% Efficacy” value [4, 6] was 81%. The “% Efficacy” value [4, 7] was 100%, the “% Efficacy” value [4, 8] was 100% and the “% Efficacy” value [4, 9] was 100%. For the same compound, the Mean worm counts (D. immitis JYD-34 strain; [6]) was 6.0, the Mean worm counts (D. immitis JYD-34 strain; [7]) was 2.4 and the Mean worm counts (D. immitis JYD-34 strain; [8]) was 2.8. For the same compound, the Mean worm counts (D. immitis JYD-34 strain; [9]) was 0.5, the “Number of rats infected” value (D. immitis JYD-34 strain; n = 4, one rat died pre-necropsy, oral 12 μg/kg day 28, necropsy day 120) was “*3” and the “Number of rats infected” value (D. immitis JYD-34 strain; [10]) was 4. For the same compound, the “Number of rats infected” value (D. immitis JYD-34 strain; [11]) was 4, the “Number of rats infected” value (D. immitis JYD-34 strain; [12]) was 1 and the “% Efficacy” value (D. immitis JYD-34 strain; [6]) was 0%. The “% Efficacy” value (D. immitis JYD-34 strain; [7]) was 38%, the “% Efficacy” value (D. immitis JYD-34 strain; [8]) was 28% and the “% Efficacy” value (D. immitis JYD-34 strain; [9]) was 87%. For the same compound, the “Mean worm count (range)” value ([2]; arithmetic mean, rat, SC 0.001 mg/kg day 30 post-inoculation, necropsy day 112-114) was 0.67, the “Mean worm count (range)” value ([2]; arithmetic mean, rat, SC 0.003 mg/kg day 30 post-inoculation, necropsy day 112-114) was 0 and the efficacy ([2]; rat model, at their use-dose) was 100%. For the same compound, the “# rats with infection (n = 6)” value [2, 13] was 4, the “% Efficacy” value [2, 13] was 91.7% and the “# rats with infection (n = 6)” value [2, 14] was 0. For the same compound, the “% Efficacy” value [2, 14] was 100%, the “# of Ag+” value ([2]; rat, in vivo, sc, 0.001 mg/kg) was 1 and the “# of Ag+” value ([2]; rat, in vivo, sc, 0.003 mg/kg) was 0. The “% Efficacy” value [3, 15] was 92% and the “% Efficacy” value ([3]; SQ 3 μg/kg, dosed month 1 post-inoculation) was 100%.
With `CC(=O)OCC(=O)[C@@]1(O)CC[C@H]2[C@@H]3CCC4=CC(=O)CC[C@]4(C)[C@H]3[C@@H](O)C[C@@]21C` [hydrocortisone, hydrocortisone acetate] the mortality [5] was “increased incidence of mortality”.
In the case of `CC(C)C[C@H]1C(=O)O[C@H](Cc2ccc(N3CCOCC3)cc2)C(=O)N(C)[C@@H](CC(C)C)C(=O)O[C@H](C)C(=O)N(C)[C@@H](CC(C)C)C(=O)O[C@H](Cc2ccc(N3CCOCC3)cc2)C(=O)N(C)[C@@H](CC(C)C)C(=O)O[C@H](C)C(=O)N1C` [EMO, emodepside], the “% Efficacy” value ([1]; oral 1 μg/kg, dosed month 1 post-inoculation) is reported as 58%, the “% Efficacy” value ([1]; oral 3 μg/kg, dosed month 1 post-inoculation) is reported as 88% and the “% Efficacy” value ([1]; oral 5 μg/kg, dosed month 1 post-inoculation) is reported as 97%. The “% Efficacy” value ([1]; oral 10 μg/kg, dosed month 1 post-inoculation) was 97%, the “Mean worm count (range)” value ([2]; arithmetic mean, rat, SC 1.00 mg/kg day 30 post-inoculation, necropsy day 112-114) was 1.8 and the “Mean worm count (range)” value ([2]; arithmetic mean, rat, SC 5.00 mg/kg day 30 post-inoculation, necropsy day 112-114) was 0. For the same compound, the prevention of heartworm ([2]; rat model, dose not stated) was 100%, the “# rats with infection (n = 6)” value [2, 16] was 3 and the “% Efficacy” value [2, 16] was 75.6%. The “# rats with infection (n = 6)” value [2, 17] was 0, the “% Efficacy” value [2, 17] was 100% and the “# of Ag+” value ([2]; rat, in vivo, sc, 1 mg/kg) was 1. For the same compound, the “# of Ag+” value ([2]; rat, in vivo, sc, 5 mg/kg) was 1, the “% Efficacy” value [3, 15] was 76% and the “% Efficacy” value ([3]; SQ 5 μg/kg, dosed month 1 post-inoculation) was 100%.
